From PMC10180488, “Novel Derivatives of Eugenol as a New Class of PPARγ Agonists in Treating Inflammation: Design, Synthesis, SAR Analysis and In Vitro Anti-Inflammatory Activity” (Molecules, 2023)
Where “and” joins values, the source holds several entries; their conditions need not be identical. Identical values can stand only once.

How the values were obtained:
[1] = system: human red blood cells (HRBC); assay: HRBC membrane stabilization method; conditions: for HRBC membrane stabilization (percentage protection against HRBC lysis): mean ± SD (n = 3); for IC50: Homo sapiens, Erythrocyte, read-out: IC50 Values, HRBC membrane stabilization method
Description: The principle of this procedure is to stabilize the membrane of human red blood cells by hypotonic membrane lysis. […] Lysosomal enzyme levels typically decrease as the HRBC membrane is stabilized.
The packed cells in this blood solution were separated after centrifugation at 3000 rpm [41]. The packed cells were cleaned using an isosaline solution, and then, isosaline was used to prepare a 10% v/v suspension. This HRBC suspension was employed to estimate its anti-inflammatory properties. Different concentrations of the synthesized compounds and the reference standard were each combined with 1 mL of phosphate buffer (pH 7.4), 2 mL of hyposaline, and 0.5 mL of HRBC solution. A total of 2.0 mL of distilled water was utilized as the control. The assay mixtures were all centrifuged at 3000 rpm after 30 min of incubation at 37°C. The following formula was used to determine the percentage of stabilized HRBC membranes. Percentage protection= 100 − (OD sample/OD control) × 100

human PPARγ- LBD = target: T1, human PPARγ- LBD (Homo sapiens, UniProt P37231); assay: Lanthascreen TR-FRET PPARγ competitive binding assay; conditions: for IC50: Lanthascreen TR-FRET competitive binding; for Raw Data / Raw Data - Background: TR-FRET
T1 construct: a mixture of a human PPARγ- LBD labelled with glutathione S-transferase (GST)
T1 sequence (P37231 238-503 limits assumed): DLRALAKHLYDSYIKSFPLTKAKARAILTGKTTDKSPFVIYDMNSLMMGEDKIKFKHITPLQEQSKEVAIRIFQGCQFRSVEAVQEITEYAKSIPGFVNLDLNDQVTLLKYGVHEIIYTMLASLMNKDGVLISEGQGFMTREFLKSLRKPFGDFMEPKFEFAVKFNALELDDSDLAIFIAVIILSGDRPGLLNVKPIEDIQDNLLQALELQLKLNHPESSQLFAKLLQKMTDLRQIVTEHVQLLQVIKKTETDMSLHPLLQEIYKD
Description: Using the Lanthasreen TR-FRET assay, the synthesized compounds were first preliminary tested for the PPARγ binding affinity. […] A chemical under test displaces the tracer from PPAR-LBD, which lowers the TR-FRET ratio and decreases the FRET signal Figure 8 [33].
A multimode low-volume proxy plate reader was used to read the plates after one hour of incubation. Then, a mixture of a human PPARγ- LBD labelled with glutathione S-transferase (GST), a fluorescent small pan-PPAR ligand (FluormoneTM Pan-PPAR Green), and terbium-labeled anti-GST antibody was added.

egg albumin = egg albumin (Gallus gallus, UniProt P01012); assay: Albumin denaturation assay; format: biochemical, hen; conditions: mean ± SD (n = 3), read-out: Percentage inhibition of denaturation of albumin
egg albumin, sequence (P01012 2-386): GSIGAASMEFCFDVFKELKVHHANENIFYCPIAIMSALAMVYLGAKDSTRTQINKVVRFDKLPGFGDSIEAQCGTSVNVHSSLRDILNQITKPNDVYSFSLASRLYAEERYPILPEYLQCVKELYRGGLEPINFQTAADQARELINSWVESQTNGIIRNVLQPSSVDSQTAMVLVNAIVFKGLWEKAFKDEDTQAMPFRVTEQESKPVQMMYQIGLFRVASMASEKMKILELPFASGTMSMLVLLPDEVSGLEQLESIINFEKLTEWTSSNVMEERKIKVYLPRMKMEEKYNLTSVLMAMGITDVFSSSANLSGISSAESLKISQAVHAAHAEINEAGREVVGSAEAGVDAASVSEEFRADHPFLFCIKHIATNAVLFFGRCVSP
Description: Inflammation is accompanied by protein denaturation. Tissue protein denaturation is a well-established cause of Inflammatory illnesses. Inflammatory disorders including rheumatoid arthritis, diabetes, and cancer have been linked to the denaturation of proteins. The ability of a substance to stop proteins from becoming denaturized has a role in the prevention of inflammatory disorders. […] Denaturation of proteins is accomplished by keeping the reaction mixture in a water bath at 70 °C for […].
Minor modifications were made to Mizushima and Kobayashi’s and Sakat et al. methodologies. The reaction mixture containing 0.2 mL of egg albumin (from a fresh hen’s egg) is mixed with 2.8 mL of phosphate-buffered saline (PBS, pH 6.4) and 2 mL of synthesized compounds in varying concentrations. The mixture was then heated at 70 °C for 5 min after being incubated at 37 °C for approximately 15–20 min. After cooling, their absorbance was measured at 660 nm spectrometrically. Three duplicates of the experiment were carried out. […] Percentage inhibition = (OD control − OD sample/OD control) × 100

Row | Compound | HRBC membrane stabilization (percentage protection against HRBC lysis) ([1]; 6.25 µM) | HRBC membrane stabilization (percentage protection against HRBC lysis) ([1]; 12.5 µM) | HRBC membrane stabilization (percentage protection against HRBC lysis) ([1]; 25 µM) | HRBC membrane stabilization (percentage protection against HRBC lysis) ([1]; 50 µM) | HRBC membrane stabilization (percentage protection against HRBC lysis) ([1]; 100 µM) | HRBC membrane stabilization (percentage protection against HRBC lysis) ([1]; 200 µM) | HRBC membrane stabilization (percentage protection against HRBC lysis) ([1]; 400 µM) | IC50 [1] | IC50 (human PPARγ- LBD) | Raw Data (human PPARγ- LBD; 0.0000512 µM) | Raw Data - Background (human PPARγ- LBD; 0.0000512 µM) | Raw Data (human PPARγ- LBD; 0.000256 µM) | Raw Data - Background (human PPARγ- LBD; 0.000256 µM) | Raw Data (human PPARγ- LBD; 0.00128 µM) | Raw Data - Background (human PPARγ- LBD; 0.00128 µM) | Raw Data (human PPARγ- LBD; 0.0064 µM) | Raw Data - Background (human PPARγ- LBD; 0.0064 µM) | Raw Data (human PPARγ- LBD; 0.032 µM) | Raw Data - Background (human PPARγ- LBD; 0.032 µM) | Raw Data (human PPARγ- LBD; 0.16 µM) | also measured
1 | C=CCc1ccc(OCC(=O)Nc2ccccc2)c(OC)c1 [Compound 1a, 2-(4-Alyl-2-methoxyphenoxy)-N-phenylacetamide] | 4.79 ± 0.48% | 10.45 ± 0.38% | 21.40 ± 0.36% | 28.78 ± 0.66% | 37.88 ± 0.28% | 47.23 ± 0.48% | 60.88% and 60.88 ± 0.36% | 79.5 µM | 29.8 µM | 1.916 RLU | 1.681 RLU | 1.915 RLU | 1.68 RLU | 1.916 RLU | 1.681 RLU | 1.92 RLU | 1.685 RLU | 2.058 RLU | 1.823 RLU | 1.971 RLU | Raw Data - Background (human PPARγ- LBD; 0.16 µM): 1.736 RLU; Raw Data (human PPARγ- LBD; 0.8 µM): 1.899 RLU; Raw Data - Background (human PPARγ- LBD; 0.8 µM): 1.664 RLU; Raw Data (human PPARγ- LBD; 4 µM): 1.717 RLU; Raw Data - Background (human PPARγ- LBD; 4 µM): 1.483 RLU; Raw Data (human PPARγ- LBD; 20 µM): 1.047 RLU; Raw Data - Background (human PPARγ- LBD; 20 µM): 0.813 RLU; Raw Data (human PPARγ- LBD; 100 µM): 0.245 RLU; Raw Data - Background (human PPARγ- LBD; 100 µM): 0.01 RLU; inhibition at 6.25 µM (egg albumin): 1.67 ± 0.37%; inhibition at 12.5 µM (egg albumin): 5.32 ± 0.37%; inhibition at 25 µM (egg albumin): 10.2 ± 0.24%; inhibition at 50 µM (egg albumin): 14.5 ± 0.43%; inhibition at 100 µM (egg albumin): 19.2 ± 0.24%; inhibition at 200 µM (egg albumin): 25.1 ± 0.31%; inhibition at 400 µM (egg albumin): 32.3 ± 0.37%
2 | C=CCc1ccc(OCC(=O)Nc2cccc(C(F)(F)F)c2)c(OC)c1 [Compound 1d, 2-(4-Allyl-2-methoxyphenoxy)-N-[(3-trifluoromethyl)phenyl]acetamide] | 8.85 ± 0.36% | 17.77 ± 0.46% | 28.72 ± 0.46% | 34.74 ± 0.56% | 45.51 ± 0.28% | 56.45 ± 0.31% | 67.40 ± 0.28% | 66.3 µM | 6.47 µM | 2.02 RLU | 1.876 RLU | 2.04 RLU | 1.881 RLU | 2 RLU | 1.79 RLU | 2.061 RLU | 1.836 RLU | 1.99 RLU | 1.875 RLU | 1.945 RLU | Raw Data - Background (human PPARγ- LBD; 0.16 µM): 1.78 RLU; Raw Data (human PPARγ- LBD; 0.8 µM): 2.018 RLU; Raw Data - Background (human PPARγ- LBD; 0.8 µM): 1.89 RLU; Raw Data (human PPARγ- LBD; 4 µM): 1.542 RLU; Raw Data - Background (human PPARγ- LBD; 4 µM): 1.307 RLU; Raw Data (human PPARγ- LBD; 20 µM): 0.593 RLU; Raw Data - Background (human PPARγ- LBD; 20 µM): 0.497 RLU; Raw Data (human PPARγ- LBD; 100 µM): 0.6527 RLU; Raw Data - Background (human PPARγ- LBD; 100 µM): 0.4876 RLU; inhibition at 6.25 µM (egg albumin): 4.21 ± 0.37%; inhibition at 12.5 µM (egg albumin): 8.79 ± 0.32%; inhibition at 25 µM (egg albumin): 14 ± 0.31%; inhibition at 50 µM (egg albumin): 18.8 ± 0.39%; inhibition at 100 µM (egg albumin): 32.46 ± 0.32%; inhibition at 200 µM (egg albumin): 38.49 ± 0.37%; inhibition at 400 µM (egg albumin): 49.09 ± 0.18%
